Experimental data as given in paper PMC10590419, “Structural and mechanistic insights into the inhibition of respiratory syncytial virus polymerase by a non-nucleoside inhibitor” (Communications Biology, 2023).
“And” between values parts separate entries of the source, which are not always exact repeats. Equal entries are not always repeated. Where two headings read alike, the source gives them in different places.

Experiments:
recombinant RSV L+P = recombinant RSV L+P (Human respiratory syncytial virus A, UniProt P28887); experiment: De novo RNA synthesis assay, recombinant RSV L+P, Tr14 template; assay type: biochemical, Human RSV (strain A2)
Description: The reactions were performed as described by Cressey et al.[22]. […] The reactions were incubated at 30 °C for 1 h and then stopped by adding gel loading buffer containing 90% formamide, 50 mM EDTA, 0.05% Xylene Cyanol and Bromophenol Blue. Samples were denatured at 95 °C for 5 min and run on a 22.5% polyacrylamide urea sequencing gel at 80 W with radiolabeled RNA markers generated via the T7 DNA dependent RNA polymerase (DdRp). The gel was dried, exposed to a phosphor-screen, scanned on a Typhoon scanner (GE Healthcare), and quantified using ImageQuant (GE Healthcare). Bands were identified as extension products or initiation products by the 11-nucleotide ppp[…] and 2-nucleotide pppGA RNA markers, respectively. Radiolabeled RNA markers corresponding to pppGA, ppp[…], and intermediates were generated utilizing a reaction by T7 DNA-dependent RNA polymerase (AM2718, Ambion)[53]. DNA oligos: 5’-[…]-3’ (T7 promoter primer) and 5’-[…]-3’ (T7 promoter primer + target sequence template) were synthesized at IDT. Due to a mechanistic idiosyncrasy in T7 DdRp, an additional Adenosine residue was placed between the T7 promoter and the target sequence in the template. Each 40 µl reaction contained 5 mM ATP, 5 mM CTP, 5 mM GTP, 100 nM annealed DNA primer and template, 20 U T7 DdRp, 1x T7 DdRp Buffer (40 mM Tris pH 7.8, 20 mM NaCl, 6 mM MgCl2, 2 mM Spermidine HCl, 10 mM DTT), and 20 µCi of [α-^33P]ATP. Reactions were incubated at 30 °C for 5 h. Then 1 µl of reconstituted DNase I (Ambion) was added and incubated for an additional 10 min at 37 °C. This reaction was quenched with the addition of 60 µl gel loading buffer.
Supplementary Figure 4. Inhibition of de novo initiation and extension of RSV L-P RNA synthesis by JNJ-8003. a. reaction scheme. b. a sequencing gel image showing RNA products […]
contained 10 nM RSV L-P, 2 μM RNA template (Tr14), 500 μM GTP, 10 μM ATP, 170 nM [α-33P]ATP, so RNA synthesis started from +3 site and paused with a major 11-mer product. c.
Data was from the quantitation results of the gel image in b. d. The reactions […]
Data points indicate the mean, and error bars depict the SD of three technical replicates. e. a sequencing gel image showing RNA products synthesized by RSV L-P along with no enzyme control. Reaction condition was same as in b with no compound added. […]

[1] = test system: RSV A clinical isolates and laboratory strains; experiment: Inhibition of RSV-A clinical isolates and laboratory strains, RT-qPCR, HeLa; assay type: cell-based; conditions: human respiratory syncytial virus, 10 strains, read-out: Median EC50
Description: Then, 100 µL of a HeLa cell suspension (5 × 10^4 cells/mL) in culture medium was added to each well. […] After 3 days of incubation, the supernatant was removed from wells. Plates were washed twice with ice-cold PBS (100 µL/well), and were then sealed and stored overnight at −80 °C. Next, 50 µL of lysis solution supplemented with DNAse was added to the plates and incubated for 5 min followed by the addition of 5 µL stop solution (Ambion Cell-to-CT bulk lysis reagent buffer). […] Roche) for cDNA synthesis. Reverse transcription was performed at 42 °C for 30 min, followed by denaturation at 95 °C for 5 min. […] The reaction consisted of a denaturation step (95 °C for 600 s), 45 cycles of denaturation (95 °C for 15 s) and annealing/elongation (60 °C for 60 s), and a step of cooling (40 °C for 10 s).

RSV MTase-CTD protein = RSV MTase-CTD protein (Human respiratory syncytial virus A, UniProt P28887); experiment: Methyltransferase filter-binding assay; assay type: biochemical; conditions: for MTase activity, RNA+compound+RSV MTase-CTD, CPM: three technical replicates
RSV L+P RdRp = RSV L+P RdRp (Human respiratory syncytial virus A, UniProt P28887); experiment: Biotinylated primer extension Flashplate assay, recombinant RSV L+P; assay type: biochemical, Human RSV (strain A2)
Description: RNA polymerase reaction samples consisted of recombinant RSV L-P polymerase (3 nM) in a buffer containing Tris pH 7.5 (20 mM), KCl (10 mM), dithiothreitol (2 mM), Triton (0.01%), DMSO (10% v/v) with compound at appropriate dilution (10 points 1:5-fold serial dilution starting at 1 µM), and MgCl2 (6 mM). Reactions were started at 30 °C by adding an oligonucleotide template sequence derived from the RSV leader promoter (5’-[…]-3’, 0.2 μM) together with a biotinylated primer (5’-bi-ACGC, 4 μM) mixed with GTP (10 µM), ATP (10 µM) and [α-^33P]CTP (0.025 µM, 3000 Ci/mmol) in a final volume of 10 μL. Reactions were stopped after 120 min by the addition of 90 µl EDTA (0.1 M). Samples were transferred to Flashplates and left 1 h at room temperature for incubation before being washed twice with 0.1% Tween 20, sealed (Topseal) and read on a Wallac MicroBeta TriLux Liquid Scintillation Counter.

[2] = repeat in triplicate, 0.093 nM to 200 nM

RSV L+P RdRp, sequence (P03421 whole entry): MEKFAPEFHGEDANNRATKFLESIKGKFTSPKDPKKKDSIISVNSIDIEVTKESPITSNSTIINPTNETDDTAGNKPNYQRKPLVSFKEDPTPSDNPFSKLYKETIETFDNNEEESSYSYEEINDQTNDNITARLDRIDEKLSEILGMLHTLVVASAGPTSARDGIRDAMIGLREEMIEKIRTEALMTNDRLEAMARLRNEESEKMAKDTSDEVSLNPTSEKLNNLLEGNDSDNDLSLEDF
RSV L+P RdRp, sequence (P28887 whole entry): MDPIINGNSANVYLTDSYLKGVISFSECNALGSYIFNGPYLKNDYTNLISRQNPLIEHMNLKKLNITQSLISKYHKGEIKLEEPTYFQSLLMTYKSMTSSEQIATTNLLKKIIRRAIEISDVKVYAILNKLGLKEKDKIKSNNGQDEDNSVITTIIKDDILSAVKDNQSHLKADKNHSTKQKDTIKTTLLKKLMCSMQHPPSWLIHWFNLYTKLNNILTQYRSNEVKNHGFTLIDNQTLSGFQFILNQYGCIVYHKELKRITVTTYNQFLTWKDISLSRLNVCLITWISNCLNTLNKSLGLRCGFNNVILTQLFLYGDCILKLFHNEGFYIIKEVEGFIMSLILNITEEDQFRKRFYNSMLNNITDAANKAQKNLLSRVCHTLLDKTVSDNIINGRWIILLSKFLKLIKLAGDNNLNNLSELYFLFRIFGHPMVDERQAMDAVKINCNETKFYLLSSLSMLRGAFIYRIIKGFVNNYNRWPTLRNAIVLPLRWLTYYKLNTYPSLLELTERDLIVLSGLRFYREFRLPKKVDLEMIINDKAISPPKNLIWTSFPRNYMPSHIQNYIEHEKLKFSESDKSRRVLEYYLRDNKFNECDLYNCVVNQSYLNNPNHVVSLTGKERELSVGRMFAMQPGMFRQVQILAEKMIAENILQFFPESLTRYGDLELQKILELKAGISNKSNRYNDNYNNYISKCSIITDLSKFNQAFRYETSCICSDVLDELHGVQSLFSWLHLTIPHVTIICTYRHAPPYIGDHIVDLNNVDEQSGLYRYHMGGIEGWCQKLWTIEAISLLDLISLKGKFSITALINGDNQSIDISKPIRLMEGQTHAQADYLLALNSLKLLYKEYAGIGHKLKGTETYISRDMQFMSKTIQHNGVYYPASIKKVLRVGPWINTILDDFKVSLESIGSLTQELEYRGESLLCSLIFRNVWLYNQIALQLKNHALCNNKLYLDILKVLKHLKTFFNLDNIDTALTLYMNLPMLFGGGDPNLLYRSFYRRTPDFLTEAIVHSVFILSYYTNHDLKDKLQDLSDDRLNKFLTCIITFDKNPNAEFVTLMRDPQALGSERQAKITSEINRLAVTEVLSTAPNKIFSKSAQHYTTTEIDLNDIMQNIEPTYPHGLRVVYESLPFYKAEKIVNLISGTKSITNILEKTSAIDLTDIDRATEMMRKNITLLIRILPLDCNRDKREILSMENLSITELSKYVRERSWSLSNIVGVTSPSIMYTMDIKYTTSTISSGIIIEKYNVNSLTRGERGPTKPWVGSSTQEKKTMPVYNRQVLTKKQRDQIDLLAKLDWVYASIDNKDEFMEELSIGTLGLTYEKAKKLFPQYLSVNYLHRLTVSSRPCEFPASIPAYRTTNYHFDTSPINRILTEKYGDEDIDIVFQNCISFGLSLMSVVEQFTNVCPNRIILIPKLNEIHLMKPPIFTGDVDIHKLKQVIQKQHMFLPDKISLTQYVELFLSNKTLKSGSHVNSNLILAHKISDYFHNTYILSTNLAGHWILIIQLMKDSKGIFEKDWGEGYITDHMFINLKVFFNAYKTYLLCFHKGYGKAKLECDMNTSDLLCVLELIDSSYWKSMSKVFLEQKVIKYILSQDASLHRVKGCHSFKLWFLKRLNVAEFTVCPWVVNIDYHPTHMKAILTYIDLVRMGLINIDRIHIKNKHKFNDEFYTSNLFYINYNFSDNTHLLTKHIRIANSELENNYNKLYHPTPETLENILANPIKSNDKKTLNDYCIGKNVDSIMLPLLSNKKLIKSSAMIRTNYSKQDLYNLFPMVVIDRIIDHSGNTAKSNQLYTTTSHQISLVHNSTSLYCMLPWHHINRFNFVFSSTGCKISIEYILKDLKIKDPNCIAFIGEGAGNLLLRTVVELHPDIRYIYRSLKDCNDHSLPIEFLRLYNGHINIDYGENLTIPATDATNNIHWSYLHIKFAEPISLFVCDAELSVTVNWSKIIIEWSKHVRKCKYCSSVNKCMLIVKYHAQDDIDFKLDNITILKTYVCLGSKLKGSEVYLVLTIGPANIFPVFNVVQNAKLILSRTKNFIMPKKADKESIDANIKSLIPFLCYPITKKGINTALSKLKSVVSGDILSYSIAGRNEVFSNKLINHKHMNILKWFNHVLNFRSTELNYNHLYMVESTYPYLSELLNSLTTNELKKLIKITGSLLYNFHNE
recombinant RSV L+P, sequence (P28887 whole entry): as above
recombinant RSV L+P, sequence (P03421 whole entry, further chain): as the sequence (P03421 whole entry) above

Q: How did the “maximal inhibition, 11-mer product” value (recombinant RSV L+P; 9.3 pM to 200 μM) turn out when COc1cc(C(=O)NC[C@](O)(c2cc(C(C)(C)O)c(F)c(-c3ccc(F)cc3)n2)C(F)(F)F)cc2cc(C)nnc12 [JNJ-8003] was run?
A: 99%

Q: And the “maximal inhibition, de novo pppGpA formation” value (recombinant RSV L+P; 9.3 pM to 200 μM)?
A: 65%

Q: And the IC50 (recombinant RSV L+P; 9.3 pM to 200 μM, read-out: IC50, 11-mer product)?
A: 4.7 nM

Q: And the IC50 (recombinant RSV L+P; +3 site, tr-14, 9.3 pM to 200 μM, read-out: IC50, de novo pppGpA dinucleotide formation)?
A: 5.1 nM

Q: What about the “maximal inhibition, 11-mer product” value (recombinant RSV L+P; [2]) of the same molecule?
A: 100%

Q: And the “maximal inhibition, de novo pppGpA formation” value (recombinant RSV L+P; [2])?
A: 69%

Q: And the IC50 (recombinant RSV L+P; repeat in triplicate, 0.093 nM to 200 nM, read-out: IC50, 11-mer product)?
A: 3.6 nM

Q: And the IC50 (recombinant RSV L+P; repeat in triplicate, 0.093 nM to 200 nM, read-out: IC50, de novo pppGpA formation)?
A: 2.3 nM

Q: And the EC50 [1]?
A: 0.18 nM

Q: What about the “MTase activity, RNA+compound+RSV MTase-CTD, CPM” value (RSV MTase-CTD protein; 50 uM) of the same molecule?
A: 32508 CPM and 30594 CPM and 30169 CPM

Q: What about the “MTase activity, RNA+compound+RSV MTase-CTD, CPM” value (RSV MTase-CTD protein; 200 uM) of the same molecule?
A: 26082 CPM and 22767 CPM and 27924 CPM

Q: And the “impact on MTase activity (in words)” value (RSV MTase-CTD protein; recombinant MTase-CTD fragment)?
A: no impact

Q: What about the IC50 (RSV L+P RdRp; RSV L+P RdRp primer extension, n 18, read-out: Median IC50) of the same molecule?
A: 0.73 nM

Q: What about the IC50 (RSV L+P RdRp; RdRp activity, Flashplate (Fig. 1c), read-out: IC50) of the same molecule?
A: 0.67 nM

Q: And the inhibition at 0.00032 µM (RSV L+P RdRp; [JNJ-8003] 0.00032 uM, replicates 1-4)?
A: 28.6%

Q: And the “% inhibition” value (RSV L+P RdRp; [JNJ-8003] 0.00032 uM, replicates 1-4, 0.00032 µM)?
A: 26.2934% and 27.7635% and 40.6870%

Q: And the inhibition at 0.0016 µM (RSV L+P RdRp; [JNJ-8003] 0.0016 uM, replicates 1-4)?
A: 55.8%

Q: What about the “% inhibition” value (RSV L+P RdRp; [JNJ-8003] 0.0016 uM, replicates 1-4, 0.0016 µM) of the same molecule?
A: 60.6805% and 64.1654% and 73.5323%

Q: What about the inhibition at 0.008 µM (RSV L+P RdRp; [JNJ-8003] 0.008 uM, replicates 1-4) of the same molecule?
A: 81.4%

Q: What about the “% inhibition” value (RSV L+P RdRp; [JNJ-8003] 0.008 uM, replicates 1-4, 0.008 µM) of the same molecule?
A: 89.6905% and 92.3440% and 94.9354%

Q: What about the inhibition at 0.04 µM (RSV L+P RdRp; [JNJ-8003] 0.04 uM, replicates 1-4) of the same molecule?
A: 93%

Q: What about the “% inhibition” value (RSV L+P RdRp; [JNJ-8003] 0.04 uM, replicates 1-4, 0.04 µM) of the same molecule?
A: 96.5839% and 97.2066% and 98.2976%

Q: And the inhibition at 0.2 µM (RSV L+P RdRp; [JNJ-8003] 0.2 uM, replicates 1-4)?
A: 95.2%

Q: And the “% inhibition” value (RSV L+P RdRp; [JNJ-8003] 0.2 uM, replicates 1-4, 0.2 µM)?
A: 96.5743% and 98.0014% and 97.9026%
